From PMC10067098 (Cancer Medicine, 2023)

Experiment: plasma pharmacokinetics, non‐compartmental analysis
Assay type: in vivo, human
Conditions: Day 1 in Cycle 1 or Day 1 in Cycle 2; data not shown
Protocol: In addition, trough plasma concentration (C trough) was measured on Day 7 in Cycle 0, and Day 1 in Cycles 1 and 2.
TEAEs were tabulated by system organ class (SOC) and preferred term (PT). For the other safety and PK endpoints, continuous data were described by mean and standard deviation (SD), median and range, and categorical data were summarized by frequency. The proportionality of the PK parameters, C max and AUC10h, was evaluated using a power model (see Table 4). For the efficacy endpoints, best overall response was tabulated as a frequency table, and the time‐to‐event data such as duration of response, PFS, and OS was evaluated using Kaplan–Meier method. All analyses were conducted using SAS® Version 9.4 (SAS Institute).

- mean C max and AUC among cohorts: no specific pattern was observed
Compound: COc1cc2ncnc(Nc3ccc(F)c(Cl)c3)c2cc1OCCCN1CCOCC1 [gefitinib]
